Source: US6576635B2, “Compositions comprising trimetrexate” (MedImmune Oncology, Inc., priority 1999, dated 2003)

Columns and labels:
[1] = Relative light stability of dosage forms; format: physicochemical
Excerpt: (§1) Dosage forms of trimetrexate glucuronate and trimetrexate ascorbate were dispersed in thin films on watch glasses and exposed to illumination in an air atmosphere over time. The overall illumination was approximately 0.28 million lux hours per day and the integrated near ultraviolet energy was approximately 210 watt hours per square meter per day. Therefore at day 9 the dosage forms had received approximately 2.5 million lux hours of illumination and approximately 1900 watt hours per square meter of integrated near ultraviolet energy. The dosage forms were tested over time for trimetrexate decomposition and observed for physical appearance. Both dosage forms were tested according to the method in Example 2, except the amount of ascorbic acid equivalent to that in the dosage form was added to the trimetrexate HPLC standards being used to evaluate the ascorbate formulation to give equivalent response factors.
(§2) In Table 9, the total quantity of trimetrexate free base is expressed as percent of the initial amount of trimetrexate, and the total amount of impurities is expressed as the sum of the weight percent of the aldehyde degradant and area percent of all other impurities. The oxidative degradation pathway of trimetrexate generates the aldehyde degradant. Its response factor has been determined to be 0.62 relative to that of trimetrexate. Therefore the weight percent of the aldehyde degradant is obtained by dividing the area percent value by the response factor of 0.62.

[2] = Relative thermal stability of solid dosage forms; format: physicochemical; design: key to Appearance: S = satisfactory (pale green-yellow solid); settings: 40° C.
Procedure: Both dosage forms were tested according to the method in Example 2, except the amount of ascorbic acid equivalent to that in the dosage form was added to the trimetrexate HPLC standards being used to evaluate the ascorbate formulation to give equivalent response factors.

[3] = Relative thermal stability of reconstituted dosage forms; format: physicochemical; design: key to Appearance: S = satisfactory (pale green-yellow solution); U = unsatisfactory (discolored solution); settings: 25 ° C.
Procedure: One bulk solution of each dosage form was prepared by combining its vials, held at 25 ° C. and 60% relative humidity in closed containers and tested over time for trimetrexate decomposition and observed for physical appearance. Both dosage forms were tested according to the method in Example 2, except the amount of ascorbic acid equivalent to that in the dosage form was added to the trimetrexate standards being used to evaluate the ascorbate formulation to give equivalent response factors.

[4] = Relative light stability of dosage forms; format: physicochemical; design: key: S = satisfactory (pale green-yellow solid)
Excerpt: as §1, §2

[5] = Relative light stability of dosage forms; format: physicochemical; design: key: S = satisfactory (pale green-yellow solid); U = unsatisfactory (discolored solid)
Excerpt: as §1, §2

[6] = test system: murine cell lines such as L1210, L5178Y, S-180, W-256; settings: cited from earlier work
[7] = in 1:1 methanol/water; cited from earlier work
[8] = test system: murine tumors such as B16 melanoma, colon 26 and 38, L1210 and P388 leukemia and CD8F mammary tumors; settings: cited from earlier work
[9] = test system: human tumor cells lines derived from breast, colon, lung, ovary, renal and melanoma cells; settings: cited from earlier work
[10] = exposed to oxygen at room temperature; cited from earlier work
P450 enzyme system = settings: cited from earlier work
[11] = cited from earlier work
[12] = day 0 of illumination, weight percent aldehyde + area percent other impurities
[13] = day 0, reconstituted ~12.5 mg/ml, 60% RH
[14] = day 0, reconstituted ~12.5 mg/ml, 60% RH, HPLC area
[15] = day 0, reconstituted ~12.5 mg/ml, 60% relative humidity
[16] = day 0, thin film, illumination ~0.28 million lux hours per day, air
[17] = day 9 of illumination (~2.5 million lux hours)

COc1cc(NCc2ccc3nc(N)nc(N)c3c2C)cc(OC)c1OC.O=C1O[C@H]([C@@H](O)CO)C(O)=C1O [Trimetrexate Ascorbate]
% Aldehyde Degredant (w/w) ([1]; day 0 of illumination): 0.1% | % TMX of Initial ([1]; day 0 of illumination): 100.0% | % Total Imp. [1, 12]: 0.1% | % Aldehyde Degredant (w/w) ([1]; day 2 of illumination): 0.1% | % TMX of Initial ([1]; day 2 of illumination): 98.3% | % Total Imp. ([1]; day 2 of illumination): 0.4% | % Aldehyde Degredant (w/w) ([1]; day 4 of illumination): 0.1% | % TMX of Initial ([1]; day 4 of illumination): 97.7% | % Total Imp. ([1]; day 4 of illumination): 0.6% | % Aldehyde Degredant (w/w) ([1]; day 6 of illumination): 0.1% | % TMX of Initial ([1]; day 6 of illumination): 97.1% | % Total Imp. ([1]; day 6 of illumination): 1.0% | % Aldehyde Degredant (w/w) ([1]; day 9 of illumination): 0.2% | % TMX of Initial ([1]; day 9 of illumination): 96.1% | % Total Imp. ([1]; day 9 of illumination): 1.4% | % Label Claim ([2]; 1 month, 75% RH): 100.0% | % Total Imp. ([2]; 1 month, 75% RH, HPLC area): <0.1% | Appearance ([2]; 1 month, 75% relative humidity): S | % Label Claim ([2]; 2 months, 75% RH): 99.6% | % Total Imp. ([2]; 2 months, 75% RH): <0.1% | Appearance ([2]; 2 months, 75% RH): S | % Label Claim ([2]; 3 months, 75% RH): 98.9% | % Total Imp. ([2]; 3 months, 75% RH): <0.1% | Appearance ([2]; 3 months, 75% RH): S | % Label Claim [3, 13]: 99.0% | % Total Imp. [3, 14]: 0.1% | Appearance [3, 15]: S | % Label Claim ([3]; day 1, reconstituted, 60% RH): 98.5% | % Total Imp. ([3]; day 1, reconstituted, 60% RH): 0.1% | Appearance ([3]; day 1, reconstituted, 60% RH): S | % Label Claim ([3]; day 2, reconstituted, 60% RH): 98.4% | % Total Imp. ([3]; day 2, reconstituted, 60% RH): 0.1% | Appearance ([3]; day 2, reconstituted, 60% RH): S | % Label Claim ([3]; day 3, reconstituted, 60% RH): 98.8% | % Total Imp. ([3]; day 3, reconstituted, 60% RH): 0.2% | Appearance ([3]; day 3, reconstituted, 60% RH): S | % Label Claim ([3]; day 4, reconstituted, 60% RH): 101.0% | % Total Imp. ([3]; day 4, reconstituted, 60% RH): 0.4% | Appearance ([3]; day 4, reconstituted, 60% RH): S | % Label Claim ([3]; day 5, reconstituted, 60% RH): 98.2% | % Total Imp. ([3]; day 5, reconstituted, 60% RH): 0.3% | Appearance ([3]; day 5, reconstituted, 60% RH): S | % Label Claim ([3]; day 6, reconstituted, 60% RH): 96.5% | % Total Imp. ([3]; day 6, reconstituted, 60% RH): 0.4% | Appearance ([3]; day 6, reconstituted, 60% RH): S | % Label Claim ([3]; day 7, reconstituted, 60% RH): 98.7% | % Total Imp. ([3]; day 7, reconstituted, 60% RH): 0.6% | Appearance ([3]; day 7, reconstituted, 60% RH): S | Appearance [4, 16]: S | Appearance ([4]; day 2 of illumination): S | Appearance ([4]; day 4 of illumination): S | Appearance ([4]; day 6 of illumination): S | Appearance [4, 17]: S

COc1cc(NCc2ccc3nc(N)nc(N)c3c2C)cc(OC)c1OC.O=C(O)[C@H]1O[C@H](O)[C@H](O)[C@@H](O)[C@@H]1O [Trimetrexate Glucuronate]
Appearance ([5]; day 2 of illumination): U | Appearance ([5]; day 4 of illumination): U | Appearance ([5]; day 6 of illumination): U | Appearance [5, 17]: U | % Aldehyde Degredant (w/w) ([1]; day 0 of illumination): 0.3% | % TMX of Initial ([1]; day 0 of illumination): 100.0% | % Total Imp. [1, 12]: 0.9% | % Aldehyde Degredant (w/w) ([1]; day 2 of illumination): 2.0% | % TMX of Initial ([1]; day 2 of illumination): 94.4% | % Total Imp. ([1]; day 2 of illumination): 3.1% | % Aldehyde Degredant (w/w) ([1]; day 4 of illumination): 3.8% | % TMX of Initial ([1]; day 4 of illumination): 92.4% | % Total Imp. ([1]; day 4 of illumination): 5.6% | % Aldehyde Degredant (w/w) ([1]; day 6 of illumination): 5.6% | % TMX of Initial ([1]; day 6 of illumination): 87.9% | % Total Imp. ([1]; day 6 of illumination): 8.1% | % Aldehyde Degredant (w/w) ([1]; day 9 of illumination): 8.2% | % TMX of Initial ([1]; day 9 of illumination): 83.6% | % Total Imp. ([1]; day 9 of illumination): 11.8% | % Label Claim ([2]; 1 month, 75% RH): 99.6% | % Total Imp. ([2]; 1 month, 75% RH, HPLC area): 0.1% | Appearance ([2]; 1 month, 75% relative humidity): S | % Label Claim ([2]; 2 months, 75% RH): 100.7% | % Total Imp. ([2]; 2 months, 75% RH): 0.2% | Appearance ([2]; 2 months, 75% RH): S | % Label Claim ([2]; 3 months, 75% RH): 98.0% | % Total Imp. ([2]; 3 months, 75% RH): 0.3% | Appearance ([2]; 3 months, 75% RH): S | % Label Claim [3, 13]: 95.9% | % Total Imp. [3, 14]: 0.2% | Appearance [3, 15]: S | % Label Claim ([3]; day 1, reconstituted, 60% RH): 98.6% | % Total Imp. ([3]; day 1, reconstituted, 60% RH): 0.2% | Appearance ([3]; day 1, reconstituted, 60% RH): S | % Label Claim ([3]; day 2, reconstituted, 60% RH): 96.8% | % Total Imp. ([3]; day 2, reconstituted, 60% RH): 0.4% | Appearance ([3]; day 2, reconstituted, 60% RH): S | % Label Claim ([3]; day 3, reconstituted, 60% RH): 97.1% | % Total Imp. ([3]; day 3, reconstituted, 60% RH): 0.5% | Appearance ([3]; day 3, reconstituted, 60% RH): U | % Label Claim ([3]; day 4, reconstituted, 60% RH): 96.1% | % Total Imp. ([3]; day 4, reconstituted, 60% RH): 0.8% | Appearance ([3]; day 4, reconstituted, 60% RH): U | % Label Claim ([3]; day 5, reconstituted, 60% RH): 96.5% | % Total Imp. ([3]; day 5, reconstituted, 60% RH): 1.1% | Appearance ([3]; day 5, reconstituted, 60% RH): U | % Label Claim ([3]; day 6, reconstituted, 60% RH): 95.0% | % Total Imp. ([3]; day 6, reconstituted, 60% RH): 1.5% | Appearance ([3]; day 6, reconstituted, 60% RH): U | % Label Claim ([3]; day 7, reconstituted, 60% RH): 92.1% | % Total Imp. ([3]; day 7, reconstituted, 60% RH): 1.9% | Appearance ([3]; day 7, reconstituted, 60% RH): U | Appearance [4, 16]: S

COc1cc(NCc2ccc3nc(N)nc(N)c3c2C)cc(OC)c1OC [trimetrexate free base, 2,4-diamino-5-methyl-6-[(3,4,5-trimethoxyanilino)methyl]quinazoline]
in vitro antitumor activity [6]: in vitro antitumor activity | pKa [7]: 8.0 | in vivo utility against murine tumors [8]: in vivo utility | in vitro activity against human tumor cell lines [9]: in vitro activity | decomposition [10]: decomposes over time | metabolism (P450 enzyme system): metabolized by a P450 enzyme system | water solubility [11]: < 100 µg/mL
